Laboratory results as given in the NIST ThermoML archive (doi:10.1016/j.jct.2013.08.030).
± gives the expanded uncertainty stated by the source.

Experiment: activity coefficient (dimensionless); of the first substance listed, at infinite dilution; xn = mol fraction of the nth substance listed
Conditions: 101 kPa, Liquid, Chromatography, x1 = 0

Row | SMILES | activity coefficient (318.15 K) | activity coefficient (328.15 K) | activity coefficient (338.15 K) | activity coefficient (348.15 K) | activity coefficient (358.15 K) | activity coefficient (368.15 K)
1 | CCCCCCCCCC [decane] + CCCC[N+]1(C)CCOCC1.N#C[C-](C#N)C#N | 289 ± 20 | 251 ± 17 | 224 ± 15 | 202 ± 14 | 183 ± 13 | 166 ± 11
2 | C#CCCC [1-pentyne] + CCCC[N+]1(C)CCOCC1.N#C[C-](C#N)C#N | 3.69 ± 0.25 | 3.73 ± 0.25 | 3.75 ± 0.26 | 3.8 ± 0.26 | 3.81 ± 0.26 | 3.83 ± 0.26
3 | C1COCCO1 [1,4-dioxane] + CCCC[N+]1(C)CCOCC1.N#C[C-](C#N)C#N | 0.707 ± 0.047 | 0.74 ± 0.049 | 0.772 ± 0.05 | 0.798 ± 0.052 | 0.831 ± 0.054 | 0.853 ± 0.055
4 | CCOCC [diethyl ether] + CCCC[N+]1(C)CCOCC1.N#C[C-](C#N)C#N | 5.39 ± 0.37 | 5.33 ± 0.36 | 5.27 ± 0.36 | 5.24 ± 0.36 | 5.21 ± 0.36 | 5.16 ± 0.35
5 | C=CCCCCCC [oct-1-ene] + CCCC[N+]1(C)CCOCC1.N#C[C-](C#N)C#N | 52.7 ± 3.6 | 49.1 ± 3.4 | 45.7 ± 3.1 | 43 ± 2.9 | 40.6 ± 2.8 | 38.1 ± 2.6
6 | C=CCCCCCCCC [1-decene] + CCCC[N+]1(C)CCOCC1.N#C[C-](C#N)C#N | 118 ± 8 | 110 ± 8 | 101 ± 7 | 94.5 ± 6.5 | 87.8 ± 6 | 81.4 ± 5.6
7 | C1CCOC1 [tetrahydrofuran] + CCCC[N+]1(C)CCOCC1.N#C[C-](C#N)C#N | 1.12 ± 0.07 | 1.15 ± 0.07 | 1.17 ± 0.07 | 1.18 ± 0.08 | 1.21 ± 0.08 | 1.22 ± 0.08
8 | CC#N [acetonitrile] + CCCC[N+]1(C)CCOCC1.N#C[C-](C#N)C#N | 0.617 ± 0.043 | 0.62 ± 0.043 | 0.624 ± 0.043 | 0.624 ± 0.043 | 0.629 ± 0.043 | 0.63 ± 0.044
9 | CCCCCCCC [octane] + CCCC[N+]1(C)CCOCC1.N#C[C-](C#N)C#N | 125 ± 9 | 113 ± 8 | 102 ± 7 | 93.4 ± 6.4 | 86.5 ± 5.9 | 78.6 ± 5.4
10 | CCC(C)O (stereo not given) [butan-2-ol] + CCCC[N+]1(C)CCOCC1.N#C[C-](C#N)C#N | 2.05 ± 0.14 | 1.93 ± 0.13 | 1.81 ± 0.12 | 1.71 ± 0.11 | 1.64 ± 0.11 | 1.58 ± 0.1
11 | C#CCCCC [1-hexyne] + CCCC[N+]1(C)CCOCC1.N#C[C-](C#N)C#N | 5.47 ± 0.37 | 5.5 ± 0.37 | 5.5 ± 0.37 | 5.54 ± 0.38 | 5.53 ± 0.38 | 5.51 ± 0.38
12 | CC(C)=O [acetone] + CCCC[N+]1(C)CCOCC1.N#C[C-](C#N)C#N | 0.741 ± 0.049 | 0.75 ± 0.049 | 0.765 ± 0.05 | 0.774 ± 0.051 | 0.791 ± 0.051 | 0.798 ± 0.052
13 | Cc1ccc(C)cc1 [1,4-dimethylbenzene] + CCCC[N+]1(C)CCOCC1.N#C[C-](C#N)C#N | 3.49 ± 0.24 | 3.52 ± 0.24 | 3.54 ± 0.24 | 3.57 ± 0.24 | 3.59 ± 0.24 | 3.63 ± 0.25
14 | CCCC(C)=O [pentan-2-one] + CCCC[N+]1(C)CCOCC1.N#C[C-](C#N)C#N | 1.44 ± 0.09 | 1.47 ± 0.1 | 1.49 ± 0.1 | 1.5 ± 0.1 | 1.53 ± 0.1 | 1.54 ± 0.1
15 | c1ccsc1 [thiophene] + CCCC[N+]1(C)CCOCC1.N#C[C-](C#N)C#N | 1.01 ± 0.06 | 1.04 ± 0.07 | 1.06 ± 0.07 | 1.08 ± 0.07 | 1.1 ± 0.07 | 1.12 ± 0.07
16 | CC(C)OC(C)C [diisopropyl ether] + CCCC[N+]1(C)CCOCC1.N#C[C-](C#N)C#N | 17.8 ± 1.2 | 17.4 ± 1.2 | 16.8 ± 1.1 | 16.5 ± 1.1 | 16 ± 1.1 | 15.6 ± 1.1
17 | O [water] + CCCC[N+]1(C)CCOCC1.N#C[C-](C#N)C#N | 1.03 ± 0.06 | 0.971 ± 0.061 | 0.916 ± 0.058 | 0.86 ± 0.055 | 0.819 ± 0.053 | 0.78 ± 0.051
18 | C1=CCCCC1 [cyclohexene] + CCCC[N+]1(C)CCOCC1.N#C[C-](C#N)C#N | 9.44 ± 0.64 | 9.08 ± 0.62 | 8.71 ± 0.59 | 8.46 ± 0.58 | 8.16 ± 0.56 | 7.92 ± 0.54

Row | SMILES | activity coefficient (318.15 K) | activity coefficient (328.15 K) | activity coefficient (338.15 K) | activity coefficient (348.15 K) | activity coefficient (358.15 K) | activity coefficient (368.15 K)
19 | CCOC(C)=O [ethyl acetate] + CCCC[N+]1(C)CCOCC1.N#C[C-](C#N)C#N | 1.88 ± 0.13 | 1.9 ± 0.13 | 1.92 ± 0.13 | 1.93 ± 0.13 | 1.96 ± 0.13 | 1.98 ± 0.13
20 | CCOC(C)(C)C [2-ethoxy-2-methylpropane] + CCCC[N+]1(C)CCOCC1.N#C[C-](C#N)C#N | 16.8 ± 1.1 | 16.2 ± 1.1 | 15.6 ± 1.1 | 15.3 ± 1 | 14.9 ± 1 | 14.6 ± 1
21 | CCC(=O)OC [methyl propanoate] + CCCC[N+]1(C)CCOCC1.N#C[C-](C#N)C#N | 1.64 ± 0.11 | 1.67 ± 0.11 | 1.7 ± 0.11 | 1.73 ± 0.12 | 1.76 ± 0.12 | 1.79 ± 0.12
22 | C=C(C)c1ccccc1 [(1-methylethenyl)benzene] + CCCC[N+]1(C)CCOCC1.N#C[C-](C#N)C#N | 2.8 ± 0.19 | 2.89 ± 0.2 | 2.99 ± 0.2 | 3.07 ± 0.21 | 3.15 ± 0.21 | 3.22 ± 0.22
23 | CCCCCC [hexane] + CCCC[N+]1(C)CCOCC1.N#C[C-](C#N)C#N | 56.5 ± 3.9 | 51.1 ± 3.5 | 46.7 ± 3.2 | 43.2 ± 3 | 40.3 ± 2.8 | 37.2 ± 2.5
24 | CC(C)O [propan-2-ol] + CCCC[N+]1(C)CCOCC1.N#C[C-](C#N)C#N | 1.71 ± 0.11 | 1.59 ± 0.11 | 1.5 ± 0.1 | 1.4 ± 0.09 | 1.33 ± 0.09 | 1.25 ± 0.08
25 | C#CCCCCC [1-heptyne] + CCCC[N+]1(C)CCOCC1.N#C[C-](C#N)C#N | 8.28 ± 0.56 | 8.26 ± 0.56 | 8.2 ± 0.56 | 8.2 ± 0.56 | 8.13 ± 0.55 | 8.05 ± 0.55
26 | COC(C)=O [methyl ethanoate] + CCCC[N+]1(C)CCOCC1.N#C[C-](C#N)C#N | 1.2 ± 0.08 | 1.23 ± 0.08 | 1.24 ± 0.08 | 1.26 ± 0.08 | 1.29 ± 0.08 | 1.3 ± 0.08
27 | CCC(C)(C)C [2,2-dimethylbutane] + CCCC[N+]1(C)CCOCC1.N#C[C-](C#N)C#N | 56.7 ± 3.9 | 49.8 ± 3.4 | 44.5 ± 3 | 40.9 ± 2.8 | 37.7 ± 2.6 | 34.8 ± 2.4
28 | Cc1cccc(C)c1 [1,3-dimethylbenzene] + CCCC[N+]1(C)CCOCC1.N#C[C-](C#N)C#N | 3.54 ± 0.24 | 3.56 ± 0.24 | 3.61 ± 0.25 | 3.61 ± 0.25 | 3.62 ± 0.25 | 3.62 ± 0.25
29 | CCCC(=O)OC [methyl butanoate] + CCCC[N+]1(C)CCOCC1.N#C[C-](C#N)C#N | 2.42 ± 0.16 | 2.46 ± 0.17 | 2.49 ± 0.17 | 2.51 ± 0.17 | 2.54 ± 0.17 | 2.56 ± 0.17
30 | C=CCCCCC [1-heptene] + CCCC[N+]1(C)CCOCC1.N#C[C-](C#N)C#N | 34.1 ± 2.3 | 32 ± 2.2 | 30.2 ± 2.1 | 28.7 ± 2 | 27.2 ± 1.9 | 25.7 ± 1.8
31 | COC(C)(C)C [2-methoxy-2-methylpropane] + CCCC[N+]1(C)CCOCC1.N#C[C-](C#N)C#N | 5.74 ± 0.39 | 5.77 ± 0.39 | 5.74 ± 0.39 | 5.76 ± 0.39 | 5.77 ± 0.39 | 5.78 ± 0.39
32 | CCC(C)(C)OC [2-methoxy-2-methylbutane] + CCCC[N+]1(C)CCOCC1.N#C[C-](C#N)C#N | 8.61 ± 0.59 | 8.52 ± 0.58 | 8.42 ± 0.57 | 8.37 ± 0.57 | 8.29 ± 0.57 | 8.21 ± 0.56
33 | CC(C)CO [2-methyl-1-propanol] + CCCC[N+]1(C)CCOCC1.N#C[C-](C#N)C#N | 2.19 ± 0.15 | 2.03 ± 0.14 | 1.87 ± 0.13 | 1.74 ± 0.12 | 1.65 ± 0.11 | 1.56 ± 0.1
34 | CCC[N+](=O)[O-] [1-nitropropane] + CCCC[N+]1(C)CCOCC1.N#C[C-](C#N)C#N | 0.982 ± 0.062 | 0.99 ± 0.062 | 0.998 ± 0.062 | 1 ± 0.06 | 1.01 ± 0.06 | 1.01 ± 0.06
35 | C1CCCCC1 [cyclohexane] + CCCC[N+]1(C)CCOCC1.N#C[C-](C#N)C#N | 22.6 ± 1.5 | 20.8 ± 1.4 | 19.3 ± 1.3 | 18 ± 1.2 | 16.9 ± 1.2 | 16 ± 1.1
